In PMC6889161, “Inhibitory characteristics of flavonol-3-O-glycosides from Polygonum aviculare L. (common knotgrass) against porcine pancreatic lipase” (Scientific Reports, 2019):

Assays:
pancreatic lipase (PL) = system: T1, pancreatic lipase (PL); assay: Fluorescence emission spectroscopy (tryptophan fluorescence quenching of PL); type: binding, porcine; conditions: for kq (bimolecular quenching constant): calculated from KSV with τ0 = 1.59 ns; for KSV (Stern-Volmer quenching constant): excitation 295 nm, 40 µM PL; for KA (binding constant) / n (number of binding sites): double-logarithmic equation
T1 construct: purchased Sigma-Aldrich Co. (St. Louis, MO, USA); host or cells: porcine pancreas (tissue preparation)
Procedure: The fluorescence spectra of PL in the presence of the sample were measured on a SpectraMax® i3 Multi-Mode Microplate Reader (Molecular Devices) as described previously with slight modification. In brief, aliquots of the sample solution at various concentrations (0−100 µM) were added into 40 µM of PL solution. The mixture was incubated for 30 min at 25 °C and 37 °C, and the fluorescence emission spectra were measured in the range of 315−400 nm upon excitation at 295 nm. The excitation and emission slit widths were set at 9 and 15 nm, respectively. The fluorescence data were analyzed by fitting to the Stern-Volmer equation for analysis of fluorescence quenching[23]:4 F0/F=1+KSV[Q]=1+kqτ0[Q] where F0 and F is the fluorescence intensity in the absence and presence of quencher, respectively, kq is the bimolecular quenching constant, τ0 is the lifetime of fluorescence in the absence of quencher, KSV is the Stern-Volmer quenching constant, and [Q] is the concentration of quencher. KSV was obtained from the slope of a plot of F0/F versus [Q] by linear regression curve fitting, and kq was calculated by KSV, where τ0 is equal to 1.59 ns[31]. The binding constant (KA) and number of binding sites (n) were obtained according to a double-logarithmic equation[32]:5 logF0−F/F=logKA+nlog[Q]

[1] = biological target: T2, Lipase from porcine pancreas type II (pancreatic lipase) (Sus scrofa, UniProt P00591); assay: Pancreatic lipase inhibition assay (4-MUO substrate, fluorescence); type: biochemical; conditions: for Inhibition mode (type of inhibition): Lineweaver-Burk plots at 50 μM and 100 μM of compound; for IC50: from RRA of PL at various concentrations, nonlinear regression
T2 construct: purchased Sigma-Aldrich Co. (St. Louis, MO, USA); host or cells: porcine pancreas (tissue preparation)
T2 sequence (P00591 1-450): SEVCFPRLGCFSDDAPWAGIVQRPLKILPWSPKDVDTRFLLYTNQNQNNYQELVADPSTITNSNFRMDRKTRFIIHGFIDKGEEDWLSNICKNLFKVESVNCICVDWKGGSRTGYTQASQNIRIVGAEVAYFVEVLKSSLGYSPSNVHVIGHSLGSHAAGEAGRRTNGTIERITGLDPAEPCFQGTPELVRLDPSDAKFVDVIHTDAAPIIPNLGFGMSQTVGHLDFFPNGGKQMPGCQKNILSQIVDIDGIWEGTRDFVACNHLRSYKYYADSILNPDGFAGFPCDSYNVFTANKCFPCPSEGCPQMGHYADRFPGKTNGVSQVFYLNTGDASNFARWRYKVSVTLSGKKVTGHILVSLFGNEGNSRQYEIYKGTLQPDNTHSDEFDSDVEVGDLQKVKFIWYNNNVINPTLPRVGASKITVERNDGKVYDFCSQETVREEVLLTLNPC
Procedure: The PL assay using 4-MUO as a substrate was conducted as described previously with slight modification[28],[29]. Lipase from porcine pancreas type II (i.e., pancreatic lipase) was dissolved in 50 mM Tris-HCl buffer (pH 8.0) to give 10 mg/mL, and centrifuged at 5,000 g for 10 min to remove insoluble material before the enzyme assay. Then, 50 µL of 0.5 mM 4-MUO solution dissolved in the above buffer and 100 µL of the sample solution dissolved in methanol (i.e., the inhibitor solution) were mixed in 96-well microplate to form the reaction system. The enzymatic hydrolysis was initiated by adding 50 µL of the PL solution to the reaction system (final 250 units/mL) at 37 °C. […] The inhibitory activities against PL were calculated for comparison with each other, as follows:1 Inhibition(%)=A0−AS/A0×100 where A0 is the relative fluorescence unit after the reaction for 30 min in the absence of sample (i.e., only methanol) and AS is the fluorescence unit in the presence of sample.
To determine the IC50, the RRA of PL in the presence of the sample at various concentrations was evaluated. The reaction of PL was measured by the same procedure described above, and the RRA was calculated from the following equation:2 Relativeresidualactivity(%)=vS/v0×100 where ν0 is the initial velocity of the reaction in the absence of sample (i.e., only methanol) and νS is the initial velocity in the presence of sample. […] The type of inhibition was elucidated by evaluating the changes of kinetic parameters from Lineweaver-Burk plot as follows:3 1/v=Km/Vmax1/[S]+1/Vmax where [S] is the concentration of substrate, v is the initial velocity of the reaction, Vmax is the maximum initial velocity when substrate approaches infinite concentration, and Km is the dissociation constant of the enzyme-substrate complex (i.e., the Michaelis constant).

`O=c1c(O[C@@H]2O[C@@H](CO)[C@H](O)[C@H]2O)c(-c2ccc(O)c(O)c2)oc2cc(O)cc(O)c12` [Avicularin, quercetin-3-O-α-L-arabinofuranoside] was tested, and the “kq (bimolecular quenching constant)” value (pancreatic lipase (PL); 25 °C) was 3.52 10^12 M^−1s^−1, the “KSV (Stern-Volmer quenching constant)” value (pancreatic lipase (PL); 25 °C) was 0.56 10^4 M^−1 and the “kq (bimolecular quenching constant)” value (pancreatic lipase (PL); 37 °C) was 3.71 10^12 M^−1s^−1. The “KA (binding constant)” value (pancreatic lipase (PL); 37 °C) was 0.94 10^4 M^−1, the “n (number of binding sites)” value (pancreatic lipase (PL); 37 °C) was 1.1119 and the “KSV (Stern-Volmer quenching constant)” value (pancreatic lipase (PL); 37 °C) was 0.59 10^4 M^−1. The “KA (binding constant)” value (pancreatic lipase (PL)) was 9400 M⁻¹, the “Inhibition mode (type of inhibition)” value [1] was “non-competitive or mixed-type inhibition” and the IC50 [1] was 142 µM.
`O=c1c(O)c(-c2ccc(O)cc2)oc2cc(O)cc(O)c12` [Kaempferol] was tested, and the “kq (bimolecular quenching constant)” value (pancreatic lipase (PL); 25 °C) was 7.67 10^12 M^−1s^−1, the “KSV (Stern-Volmer quenching constant)” value (pancreatic lipase (PL); 25 °C) was 1.22 10^4 M^−1 and the “kq (bimolecular quenching constant)” value (pancreatic lipase (PL); 37 °C) was 6.48 10^12 M^−1s^−1. For the same compound, the “KA (binding constant)” value (pancreatic lipase (PL); 37 °C) was 2.07 10^4 M^−1, the “n (number of binding sites)” value (pancreatic lipase (PL); 37 °C) was 1.1103 and the “KSV (Stern-Volmer quenching constant)” value (pancreatic lipase (PL); 37 °C) was 1.03 10^4 M^−1. The “KA (binding constant)” value (pancreatic lipase (PL)) was 20700 M⁻¹, the “Inhibition mode (type of inhibition)” value [1] was “competitive inhibition” and the IC50 [1] was 79.4 µM.
`O=c1c(O)c(-c2ccc(O)c(O)c2)oc2cc(O)cc(O)c12` [Quercetin] was tested, and the “kq (bimolecular quenching constant)” value (pancreatic lipase (PL); 25 °C) was 6.29 10^12 M^−1s^−1, the “KSV (Stern-Volmer quenching constant)” value (pancreatic lipase (PL); 25 °C) was 1.00 10^4 M^−1 and the “kq (bimolecular quenching constant)” value (pancreatic lipase (PL); 37 °C) was 5.91 10^12 M^−1s^−1. The “KA (binding constant)” value (pancreatic lipase (PL); 37 °C) was 3.57 10^4 M^−1, the “n (number of binding sites)” value (pancreatic lipase (PL); 37 °C) was 1.1471 and the “KSV (Stern-Volmer quenching constant)” value (pancreatic lipase (PL); 37 °C) was 0.94 10^4 M^−1. For the same compound, the “KA (binding constant)” value (pancreatic lipase (PL)) was 35700 M⁻¹ and the “Inhibition mode (type of inhibition)” value [1] was “competitive inhibition”.
`C[C@@H]1O[C@@H](Oc2c(-c3ccc(O)c(O)c3)oc3cc(O)cc(O)c3c2=O)[C@H](O)[C@H](O)[C@H]1O` [Quercitrin, quercetin-3-O-α-L-rhamnopyranoside] was tested, and the “kq (bimolecular quenching constant)” value (pancreatic lipase (PL); 25 °C) was 8.05 10^12 M^−1s^−1, the “KSV (Stern-Volmer quenching constant)” value (pancreatic lipase (PL); 25 °C) was 1.28 10^4 M^−1 and the “kq (bimolecular quenching constant)” value (pancreatic lipase (PL); 37 °C) was 8.30 10^12 M^−1s^−1. For the same compound, the “KA (binding constant)” value (pancreatic lipase (PL); 37 °C) was 1.00 10^4 M^−1, the “n (number of binding sites)” value (pancreatic lipase (PL); 37 °C) was 0.9760 and the “KSV (Stern-Volmer quenching constant)” value (pancreatic lipase (PL); 37 °C) was 1.32 10^4 M^−1. For the same compound, the “KA (binding constant)” value (pancreatic lipase (PL)) was 10000 M⁻¹, the “Inhibition mode (type of inhibition)” value [1] was “non-competitive or mixed-type inhibition” and the IC50 [1] was 101 µM.
With “myricetin-3-O-α-L-rhamnopyranoside [Myricitrin]” the “kq (bimolecular quenching constant)” value (pancreatic lipase (PL); 25 °C) was 7.48 10^12 M^−1s^−1, the “KSV (Stern-Volmer quenching constant)” value (pancreatic lipase (PL); 25 °C) was 1.19 10^4 M^−1 and the “kq (bimolecular quenching constant)” value (pancreatic lipase (PL); 37 °C) was 7.74 10^12 M^−1s^−1. For the same compound, the “KA (binding constant)” value (pancreatic lipase (PL); 37 °C) was 1.45 10^4 M^−1, the “n (number of binding sites)” value (pancreatic lipase (PL); 37 °C) was 1.0228 and the “KSV (Stern-Volmer quenching constant)” value (pancreatic lipase (PL); 37 °C) was 1.23 10^4 M^−1. The “KA (binding constant)” value (pancreatic lipase (PL)) was 14500 M⁻¹ and the “Inhibition mode (type of inhibition)” value [1] was “non-competitive or mixed-type inhibition”.
